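Grown in 96-well plates, cells were treated for 48 hours with each compound at five concentrations. Insufficient inhibition: endpoint recorded as highest concentration tested. At the GI50, growth is halved. TGI: concentration producing complete growth inhibition.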
Legend:
Assay in all cases: NCI-60 cell line screen, 48 h
[1] = tested on: A498 renal
[2] = tested on: ACHN renal
[3] = tested on: BT-549 breast
[4] = tested on: HOP-92 NSCLC
[5] = tested on: HS 578T breast
[6] = tested on: MCF7 breast
[7] = tested on: OVCAR-8 ovarian
[8] = tested on: RXF 393 renal
[9] = tested on: SF-268 CNS
[10] = tested on: SK-MEL-5 melanoma
[11] = tested on: SNB-75 CNS
[12] = tested on: TK-10 renal
[13] = tested on: UO-31 renal
[14] = tested on: HL-60(TB) leukemia
[15] = tested on: NCI-H522 lung

Row | Structure (SMILES) | TGI [1] | TGI [2] | TGI [3] | TGI [4] | TGI [5] | TGI [6] | TGI [7] | TGI [8] | TGI [9] | TGI [10] | TGI [11] | TGI [12] | TGI [13] | TGI [14] | TGI [15] | GI50 [2] | GI50 [11] | GI50 [13]
1 | Cc1ccc(C2SC(N)=Nc3c2c(C)nn3C(=O)c2ccccc2O)cc1 (stereo not given) | > 10 µM | > 10 µM | > 10 µM | 5.02 µM | 5.27 µM | > 10 µM | > 10 µM | > 10 µM | > 10 µM | > 10 µM | 7.14 µM | > 10 µM | > 10 µM | – | – | – | – | –
2 | Cc1ccc(C(=O)Nc2ccc(CP(=O)(O)O)cc2CP(=O)(O)O)cc1NC(=O)c1cccc(NC(=O)Nc2cccc(C(=O)Nc3cc(C(=O)Nc4ccc(CP(=O)(O)O)cc4CP(=O)(O)O)ccc3C)c2)c1 | > 100 µM | > 100 µM | > 100 µM | – | > 100 µM | > 100 µM | > 100 µM | > 100 µM | > 100 µM | > 100 µM | > 100 µM | > 100 µM | > 100 µM | > 100 µM | > 100 µM | – | – | –
3 | O=C(Nc1ccccc1)n1[nH]c(=O)n(-c2ccccc2)c1=O | > 100 µM | > 100 µM | > 100 µM | > 100 µM | > 100 µM | > 100 µM | > 100 µM | – | > 100 µM | > 100 µM | > 100 µM | > 100 µM | > 100 µM | > 100 µM | > 100 µM | – | – | –
4 | CC1(C)OC(CP(c2ccccc2)c2ccccc2)C(CP(c2ccccc2)c2ccccc2)O1 (stereo not given) | > 100 µM | > 100 µM | > 100 µM | > 27.7 µM | > 100 µM | > 100 µM | > 100 µM | – | > 100 µM | > 26.4 µM | 5.33 µM | > 100 µM | > 100 µM | 1.84 µM | > 22.7 µM | 2.98 µM | 0.865 µM | 2.78 µM
5 | C#C[C@]1(O)CC[C@H]2[C@@H]3CCC4=C/C(=N/NC(=O)c5cccc6cc7ccccc7nc56)CC[C@@H]4[C@H]3CC[C@@]21CC | > 100 µM | > 100 µM | > 100 µM | > 100 µM | > 100 µM | > 100 µM | > 100 µM | > 100 µM | > 100 µM | 63.7 µM | > 100 µM | – | – | > 100 µM | – | – | – | –
6 | Nc1ccc(CCSSCCc2ccc(N)cc2)cc1 | > 94.7 µM | > 93.2 µM | 79.1 µM | > 100 µM | 66.4 µM | > 100 µM | > 88.2 µM | 44.6 µM | 45.2 µM | > 52.7 µM | > 94.5 µM | > 100 µM | > 82.8 µM | – | 34.9 µM | – | – | –
7 | Nc1ncnc2c1ncn2C1OC(CO)C(O)C(O)C1O (stereo not given) | > 100 µM | > 100 µM | > 100 µM | > 100 µM | > 100 µM | > 100 µM | > 100 µM | – | > 100 µM | > 100 µM | > 100 µM | > 100 µM | > 100 µM | > 100 µM | > 100 µM | – | – | –
8 | COC(=O)[C@@H](NC(=O)N(CCC#N)CCCN(C(=O)N[C@H](Cc1ccccc1)C(=O)OC)c1ccccc1)C(C)C | > 100 µM | > 100 µM | > 100 µM | 80 µM | > 100 µM | > 100 µM | > 100 µM | > 100 µM | > 100 µM | > 100 µM | > 100 µM | > 100 µM | > 100 µM | – | > 100 µM | – | – | –
9 | COc1cccc(N2C(=O)/C(=C\c3ccccc3)SC2c2cc(OC)c(OC)c(OC)c2)c1 (stereo not given) | 67.7 µM | > 100 µM | > 100 µM | > 100 µM | > 100 µM | > 100 µM | > 100 µM | – | > 100 µM | > 100 µM | 57.3 µM | > 100 µM | > 100 µM | > 100 µM | > 100 µM | – | – | –
10 | CN1C(=O)C(c2c[nH]c3ccccc23)N(C)C(=O)C1c1c[nH]c2ccccc12 (stereo not given) | – | > 100 µM | > 100 µM | > 100 µM | > 100 µM | > 100 µM | > 100 µM | > 100 µM | > 100 µM | > 100 µM | 88.2 µM | > 100 µM | > 100 µM | > 100 µM | > 100 µM | – | – | –
11 | COc1cccc(-c2nc3ccccc3c(=O)[nH]2)c1OC | > 100 µM | > 100 µM | > 100 µM | – | > 100 µM | > 100 µM | > 100 µM | > 100 µM | > 100 µM | > 100 µM | > 100 µM | – | > 100 µM | – | – | – | – | –
12 | CC1OC(OC2C(OC(=O)[C@@H]3CC(C)(C)C[C@@H]4C5=CC[C@@H]6[C@@]7(C)C[C@H](O)[C@H](OC8OC(CO)C(O)C(O)C8O)[C@@](C)(CO)C7[C@H](O)C[C@@]6(C)[C@]5(C)C[C@@H](O)[C@H]43)OCC(O)C2O)C(O)C(O)C1O (stereo not given in full) | – | > 15 µM | > 15 µM | > 15 µM | > 15 µM | > 15 µM | > 15 µM | > 15 µM | > 15 µM | > 15 µM | > 15 µM | > 15 µM | > 15 µM | > 15 µM | > 15 µM | – | – | –

— PubChem BioAssay (NCI)
